Experimental data as given in paper PMC6054150, “Cytokinin perception in potato: new features of canonical players” (Journal of Experimental Botany, 2018).
Where “and” joins values, the source holds several entries; their conditions need not be identical. Identical values can stand only once. Like-named read-outs stand apart in the source and are kept apart here.

Key:
StHK4b = StHK4b (Solanum tuberosum, UniProt A0A2U9K786); assay: Plant membrane (tobacco microsome) hormone binding assay with [3H]trans-zeatin, StHK4b
Chain of StHK4b (A0A2U9K786 entry or part of it): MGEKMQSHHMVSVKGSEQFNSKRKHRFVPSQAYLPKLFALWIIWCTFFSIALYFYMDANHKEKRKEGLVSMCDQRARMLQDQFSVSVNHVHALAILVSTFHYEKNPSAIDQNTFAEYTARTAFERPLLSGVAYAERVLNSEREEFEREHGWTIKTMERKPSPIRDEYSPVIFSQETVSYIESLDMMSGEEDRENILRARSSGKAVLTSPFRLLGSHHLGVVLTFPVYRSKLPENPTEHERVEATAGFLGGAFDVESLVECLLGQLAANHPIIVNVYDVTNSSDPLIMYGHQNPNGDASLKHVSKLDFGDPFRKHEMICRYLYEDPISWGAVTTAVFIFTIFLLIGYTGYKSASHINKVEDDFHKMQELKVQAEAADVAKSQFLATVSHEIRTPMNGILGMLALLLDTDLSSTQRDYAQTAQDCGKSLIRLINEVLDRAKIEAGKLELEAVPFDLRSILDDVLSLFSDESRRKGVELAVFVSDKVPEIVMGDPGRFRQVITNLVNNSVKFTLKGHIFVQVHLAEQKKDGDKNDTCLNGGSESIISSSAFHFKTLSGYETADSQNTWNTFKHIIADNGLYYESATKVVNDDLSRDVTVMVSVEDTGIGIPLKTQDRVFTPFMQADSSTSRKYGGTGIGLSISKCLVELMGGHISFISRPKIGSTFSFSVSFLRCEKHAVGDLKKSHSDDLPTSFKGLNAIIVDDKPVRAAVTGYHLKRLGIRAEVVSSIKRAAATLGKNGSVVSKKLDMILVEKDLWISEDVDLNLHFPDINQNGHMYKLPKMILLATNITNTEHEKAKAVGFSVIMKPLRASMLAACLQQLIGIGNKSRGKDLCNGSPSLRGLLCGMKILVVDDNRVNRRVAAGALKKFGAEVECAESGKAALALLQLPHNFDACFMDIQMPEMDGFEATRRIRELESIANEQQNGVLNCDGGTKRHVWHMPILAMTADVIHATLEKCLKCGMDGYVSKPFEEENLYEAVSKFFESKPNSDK
Text: (§1) The transient transformation of tobacco (Nicotiana benthamiana Domin) leaves was accomplished according to [Sparkes et al. (2006)]. Eight-week-old tobacco plants were infiltrated with a mixture of Agrobacterium tumefaciens carrying CK receptor genes fused to green fluorescent protein (GFP) and the A. tumefaciens helper strain p19 ([Voinnet et al., 2003]), and the expression of receptor genes was checked after 5–6 d with a fluorescence microscope, Axio Imager Z2 (Carl Zeiss Microscopy GmbH), before leaves were processed further for microsome isolation.
(§2) All manipulations were done at 4 °C. Tobacco leaves 6 d after infiltration were homogenized in buffer (3 ml per 1 g of fresh weight) containing 100 mM Tris–HCl (pH 8.0), 2 mM Na2-EDTA, 50 mM KCl, 1 mM DTT, and 1 mM phenylmethylsulfonyl fluoride. The homogenate was filtered through Miracloth (Calbiochem, San Diego, CA, USA), and the filtrate was centrifuged for 5 min at 5000 g. Then supernatant was centrifuged for 40 min at 15000 g. The microsome pellet was resuspended in 50 mM KCl–10% glycerol and the microsome suspension was stored at −70 °C.
(§3) Ligand binding studies were performed in PBS as described previously ([Romanov et al., 2005]; [Lomin et al., 2015]). Studies of pH influence on hormone binding were performed in 50 mM MES–KOH (pH 5–7) or Tris–HCl (pH 7–9) buffers with 50 mM KCl. Kd for [^3H]trans-zeatin (tZ) binding to different receptors was determined in saturation assays followed by data analysis in Scatchard plots.
(§4) To analyse ligand-binding properties of the receptors, a recently developed plant membrane assay system ([Lomin et al., 2015]) was used. Predicted potato CK receptor genes were cloned into pB7FWG2 vectors for transient expression in tobacco leaves. […] Instead of full-length receptor, we clond a genomic sequence of the StHK3a sensory module flanked by transmembrane domains. From the transiently transformed tobacco leaves, a microsomal fraction enriched with individual potato receptors was obtained. The binding assays were conducted using this fraction and tritium-labeled CK. In aggregate, we tested four putative receptors belonging to all three clades: StHK2a, StHK3a (sensory module, further designated as StHK3aSM), StHK4a, and StHK4b.
(§5) First, we determined the pH-dependence of hormone binding to these receptors within the pH range of 5–9 (Fig. 5).
(§6) The interaction of a hormone with a receptor is characterized by the equilibrium dissociation constant (Kd) of the ligand–receptor complex. Kd values were determined by the dose-dependent binding of labeled trans-zeatin to StHKs, and the results were processed by the Scatchard method (Supplementary Fig. S7; [Lomin and Romanov, 2008]).
(§7) Different CKs are usually present in the plant: trans- and cis-zeatins (tZ and cZ), isopentenyladenine (iP), and dihydrozeatin (DZ). In addition to natural CKs, there are many synthetic ones. […] We studied the ligand specificity of putative receptors in competitive experiments where binding of labeled CK was carried out in the presence of various concentrations of certain unlabeled ligands. Based on the obtained competition curves (Supplementary Fig. S8), the apparent Kd values were determined for each ligand as described ([Lomin and Romanov, 2008]). We analysed the interaction of StHKs with six CKs, including five natural ones as well as the synthetic urea-type CK thidiazuron (Table 3).

StHK2a = StHK2a (Solanum tuberosum, UniProt A0A2P1D005); assay: Plant membrane (tobacco microsome) hormone binding assay with [3H]trans-zeatin, StHK2a
Chain of StHK2a (A0A2P1D005 entry or part of it): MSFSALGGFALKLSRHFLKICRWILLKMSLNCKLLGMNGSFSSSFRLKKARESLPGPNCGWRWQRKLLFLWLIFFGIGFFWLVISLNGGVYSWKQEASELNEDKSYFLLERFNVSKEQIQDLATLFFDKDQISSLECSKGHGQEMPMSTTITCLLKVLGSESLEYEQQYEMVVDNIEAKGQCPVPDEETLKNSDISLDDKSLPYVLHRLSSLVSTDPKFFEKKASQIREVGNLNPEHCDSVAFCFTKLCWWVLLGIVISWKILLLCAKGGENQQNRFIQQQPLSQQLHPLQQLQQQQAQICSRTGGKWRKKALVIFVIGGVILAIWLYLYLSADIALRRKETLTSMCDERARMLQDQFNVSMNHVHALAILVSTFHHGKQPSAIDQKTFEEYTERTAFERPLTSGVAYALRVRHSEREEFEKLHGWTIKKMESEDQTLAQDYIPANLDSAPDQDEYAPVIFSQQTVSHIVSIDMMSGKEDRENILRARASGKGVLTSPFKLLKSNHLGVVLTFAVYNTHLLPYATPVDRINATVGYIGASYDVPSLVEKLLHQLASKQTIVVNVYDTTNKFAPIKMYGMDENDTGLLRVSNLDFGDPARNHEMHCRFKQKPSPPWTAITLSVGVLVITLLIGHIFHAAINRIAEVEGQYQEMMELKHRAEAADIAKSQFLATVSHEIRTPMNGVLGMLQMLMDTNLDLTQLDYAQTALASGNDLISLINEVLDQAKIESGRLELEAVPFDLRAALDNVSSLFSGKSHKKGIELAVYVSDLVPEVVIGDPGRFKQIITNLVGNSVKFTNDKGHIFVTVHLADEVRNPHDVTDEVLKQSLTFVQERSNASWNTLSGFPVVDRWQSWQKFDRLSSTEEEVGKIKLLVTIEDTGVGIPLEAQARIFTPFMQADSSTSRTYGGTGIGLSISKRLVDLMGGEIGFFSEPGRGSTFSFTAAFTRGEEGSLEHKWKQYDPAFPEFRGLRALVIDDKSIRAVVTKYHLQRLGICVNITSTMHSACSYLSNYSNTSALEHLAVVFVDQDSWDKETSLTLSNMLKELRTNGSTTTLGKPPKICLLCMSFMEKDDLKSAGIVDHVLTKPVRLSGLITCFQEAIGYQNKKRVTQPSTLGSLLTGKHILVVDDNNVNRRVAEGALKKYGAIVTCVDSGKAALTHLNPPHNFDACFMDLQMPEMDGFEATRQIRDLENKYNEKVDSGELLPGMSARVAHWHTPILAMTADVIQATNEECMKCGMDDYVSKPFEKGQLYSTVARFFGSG
Text: as §1, §2, §3, §4, §5, §6, §7

StHK3aSM = StHK3aSM (Solanum tuberosum, UniProt A0A2U9K793); assay: Plant membrane (tobacco microsome) hormone binding assay with [3H]trans-zeatin, StHK3a sensory module
Chain of StHK3aSM (A0A2U9K793 entry or part of it): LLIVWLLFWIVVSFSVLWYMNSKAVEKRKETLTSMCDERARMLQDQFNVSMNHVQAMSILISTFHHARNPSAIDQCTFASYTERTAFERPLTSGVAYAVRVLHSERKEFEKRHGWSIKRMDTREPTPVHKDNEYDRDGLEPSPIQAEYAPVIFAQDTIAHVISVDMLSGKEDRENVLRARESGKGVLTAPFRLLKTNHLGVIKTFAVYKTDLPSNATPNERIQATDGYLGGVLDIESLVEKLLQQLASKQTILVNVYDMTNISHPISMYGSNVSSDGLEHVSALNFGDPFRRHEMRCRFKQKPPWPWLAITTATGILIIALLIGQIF
Text: as §1, §2, §3, §4, §5, §6, §7

StHK4a = StHK4a (Solanum tuberosum, UniProt A0A2U9K790); assay: Plant membrane (tobacco microsome) hormone binding assay with [3H]trans-zeatin, StHK4a
Chain of StHK4a (A0A2U9K790 entry or part of it): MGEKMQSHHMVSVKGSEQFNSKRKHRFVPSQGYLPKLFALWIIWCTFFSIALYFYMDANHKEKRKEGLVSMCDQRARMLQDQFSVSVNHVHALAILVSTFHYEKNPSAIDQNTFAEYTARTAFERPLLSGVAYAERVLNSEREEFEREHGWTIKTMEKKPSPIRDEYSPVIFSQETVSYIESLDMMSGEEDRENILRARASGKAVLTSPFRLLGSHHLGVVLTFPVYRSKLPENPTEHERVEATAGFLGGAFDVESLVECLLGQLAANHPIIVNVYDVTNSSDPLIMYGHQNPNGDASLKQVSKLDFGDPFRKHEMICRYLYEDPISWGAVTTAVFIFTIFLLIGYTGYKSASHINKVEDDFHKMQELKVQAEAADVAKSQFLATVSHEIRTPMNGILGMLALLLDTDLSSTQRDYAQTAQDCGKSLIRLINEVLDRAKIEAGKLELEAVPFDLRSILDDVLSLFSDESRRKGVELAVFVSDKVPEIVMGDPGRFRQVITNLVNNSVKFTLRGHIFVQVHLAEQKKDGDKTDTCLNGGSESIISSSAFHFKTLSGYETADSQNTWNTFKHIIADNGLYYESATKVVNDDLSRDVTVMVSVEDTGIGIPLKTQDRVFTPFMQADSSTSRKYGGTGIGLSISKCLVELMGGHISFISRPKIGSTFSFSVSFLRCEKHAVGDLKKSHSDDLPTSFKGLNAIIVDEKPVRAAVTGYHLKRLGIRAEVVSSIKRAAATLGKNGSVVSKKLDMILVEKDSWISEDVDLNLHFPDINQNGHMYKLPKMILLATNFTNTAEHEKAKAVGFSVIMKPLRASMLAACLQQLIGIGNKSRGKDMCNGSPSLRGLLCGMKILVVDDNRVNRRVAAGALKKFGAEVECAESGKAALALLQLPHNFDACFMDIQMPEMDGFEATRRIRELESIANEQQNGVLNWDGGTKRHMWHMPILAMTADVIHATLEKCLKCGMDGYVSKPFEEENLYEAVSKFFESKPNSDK
Text: as §1, §2, §3, §4, §5, §6, §7

[1] = target: StHKs (StHK2a, StHK3aSM, StHK4a, StHK4b); assay: Competitive binding, summary over the analysed StHKs; parameters: species or system Solanum tuberosum; conditions: span over StHK2a, read-out: apparent Kd, all analysed StHKs
Protocol: as §3
as §4, with “In aggregate, we tested four putative receptors belonging to all three clades: StHK2a, StHK3a (sensory module, further designated as StHK3aSM), StHK4a, and StHK4b.” left out
Different CKs are usually present in the plant: trans- and cis-zeatins (tZ and cZ), isopentenyladenine (iP), and dihydrozeatin (DZ). […] Based on the obtained competition curves (Supplementary Fig. S8), the apparent Kd values were determined for each ligand as described ([Lomin and Romanov, 2008]). We analysed the interaction of StHKs with six CKs, including five natural ones as well as the synthetic urea-type CK thidiazuron (Table 3).

StRR-A genes = assay: qRT-PCR of type A response regulator gene expression after BA treatment of potato plants; format: in vivo, Solanum tuberosum; conditions: 1 μM BA, 1 h; 1.5% sucrose
Protocol: (§8) Potato cv. Désirée plants were cultivated under standard in vitro conditions at a long (16 h) day for 5–6 weeks on liquid MS medium containing 1.5% or 5% sucrose. For hormone treatment, the medium was replaced with the same one supplemented with N^6-benzyladenine (BA, 1 μM). Tubes were inverted several times to assure uniform plant wetting and then incubated for 1 h under standard conditions. Finally, plant organs (leaves, stems, roots, tubers) were isolated and immediately frozen in liquid nitrogen. Control plants were treated in the same way but without hormone. Total RNA was isolated by the Trizol method ([Brenner et al., 2005]), and served as the template for cDNA synthesis by reverse transcription (Invitrogen). All RNA samples were treated with RNase-free DNase I. The resulting cDNA was checked for genomic DNA contamination by PCR with primers differentiating cDNA and genomic DNA. The band derived from genomic DNA was absent in the separating gel. Expression of genes encoding predicted proteins of the CK signaling system was determined by qRT-PCR. Potato housekeeping genes StEF1α (elongation factor 1-α, AB061263) and StCYC (cyclophilin, AF126551) were used as reference genes ([Nicot et al., 2005]). […]
To validate the results of CK treatment experiments, the effect of CK administration on the transcript level of the genes of type A response regulator (RR-A) genes was analysed. […]

StHK4 expression = assay: qRT-PCR of CK receptor gene expression after BA treatment of potato plants; format: in vivo, Solanum tuberosum; conditions: leaves; 1.5% sucrose; 1 μM BA, 1 h; on average
Protocol: as §8
At 1.5% sucrose, the up-regulation (on average, 2.5-fold) of StHK4 expression was regularly recorded, but only in leaves (Fig. 8). […]

[2] = competition with labeled trans-zeatin (tZ value from saturation/Scatchard), mean ± SE, read-out: Apparent Kd StHK4b
[3] = competition with labeled trans-zeatin (tZ value from saturation/Scatchard); mean ± SE; read-out: Apparent Kd StHK2a
[4] = sensory module, competition with labeled trans-zeatin (tZ value from saturation/Scatchard), mean ± SE, read-out: Apparent Kd StHK3a SM
[5] = competition with labeled trans-zeatin (tZ value from saturation/Scatchard), mean ± SE, read-out: Apparent Kd StHK4a

In the case of `CC(C)=CCNc1ncnc2nc[nH]c12` [N ^6-Isopentenyladenine], the Kd (StHK4b; [2]) is reported as 2.5 ± 0.3 nM, the Kd (StHK2a; [3]) is reported as 2.4 ± 0.2 nM and the Kd (StHK3aSM; [4]) is reported as 5.2 ± 0.8 nM. The Kd (StHK4a; [5]) was 2.1 ± 0.2 nM.

For `O=C(Nc1ccccc1)Nc1cnns1` [Thidiazuron], the Kd (StHK4b; [2]) was 17.2 ± 2.5 nM, the Kd (StHK2a; [3]) was 1.4 ± 0.04 nM and the Kd (StHK3aSM; [4]) was 2.3 ± 0.5 nM. The Kd (StHK4a; [5]) was 12.6 ± 1.9 nM.

For `C/C(=C\CNc1ncnc2[nH]cnc12)CO` [trans-Zeatin], the Kd (StHK4b; [2]) was 3 ± 0.3 nM, the “decrease of ligand binding at pH 5, StHK4b” value (StHK4b; pH 5) was “about 3 fold” and the “pH of maximal trans-zeatin binding, StHK2a” value (StHK2a) was 7.5. For the same compound, the “reduction of binding at pH 5 (factor), StHK2a” value (StHK2a) was 2, the Kd (StHK2a; [3]) was 2.6 ± 0.3 nM and the “pH of maximal trans-zeatin binding, StHK3aSM” value (StHK3aSM) was 7. The “reduction of binding at pH 5 (factor), StHK3aSM” value (StHK3aSM) was 5, the Kd (StHK3aSM; [4]) was 4.7 ± 0.6 nM and the Kd (StHK4a; [5]) was 2.5 ± 0.7 nM. The “decrease of ligand binding at pH 5, StHK4a” value (StHK4a; pH 5) was “about 3 fold”.

Compound `C/C(=C/CNc1ncnc2nc[nH]c12)CO` [cis-Zeatin] has a Kd (StHK4b; read-out: Apparent Kd StHK4b) of 129 ± 19 nM, a Kd (StHK2a; read-out: Apparent Kd StHK2a) of 102 ± 7 nM and a Kd (StHK3aSM; read-out: Apparent Kd StHK3a SM) of 110 ± 39 nM. It also gave a Kd [1] of over 100 nM and a Kd (StHK4a; read-out: Apparent Kd StHK4a) of 106 ± 22 nM.

With `c1ccc(CNc2ncnc3nc[nH]c23)cc1` [N ^6-Benzyladenine] the Kd (StHK4b) was 63 ± 12 nM, the Kd (StHK2a; read-out: Apparent Kd StHK2a; competition with labeled trans-zeatin (tZ value from saturation/Scatchard); mean ± SE) was 45 ± 3.5 nM and the Kd (StHK3aSM; Apparent Kd StHK3a SM, sensory module, competition with labeled trans-zeatin (tZ value from saturation/Scatchard), mean ± SE) was 49 ± 7 nM. The “expression of StRR-A genes” value (StRR-A genes) was “rapid and reliable increase”, the “up-regulation of StHK4 expression (BA/control)” value (StHK4 expression) was 2.5 fold and the Kd (StHK4a) was 55 ± 7 nM.

With `CC(CO)CCNc1ncnc2nc[nH]c12` (stereo not drawn) [Dihydrozeatin] the Kd (StHK4b; [2]) was 227 ± 33 nM, the Kd (StHK2a; [3]) was 169 ± 18 nM and the Kd (StHK3aSM; [4]) was ~21 nM and 21 nM. The Kd (StHK4a; [5]) was 178 ± 37 nM.
